Test results as given in publication PMC10609013, “Solubility and Thermodynamic Analysis of Isotretinoin in Different (DMSO + Water) Mixtures” (Molecules, 2023).

Assay: Shake flask solubility of ITN in {DMSO (1) + H2O (2)} mixes, HPLC
Assay type: physicochemical
Settings: 101.1 kPa
Method: A series of {DMSO (1) + H2O (2)} solutions, with DMSO mass percentages ranging from 0.10 to 0.90, was examined. Three replicates of each {DMSO (1) + H2O (2)} combination were taken. ITN’s mole fraction solubility versus mass fraction of DMSO (m = 0.0–1.0) and neat DMSO and H2O was measured using a shake flask approach at 298.2–318.2 K and 101.1 kPa. In essence, the known amounts of each {DMSO (1) + H2O (2)} combination and neat DMSO and H2O were combined with extra ITN crystals in triplicate. The equilibrium was achieved by saturating the resultant mixes in a WiseBath® WSB shaking water bath (Model WSB-18/30/-45, Daihan Scientific Co. Ltd., Seoul, Korea) at a shaking speed of 100 rpm for 72 h. In order to evaluate the equilibrium time, the preliminary experiments were performed at different time intervals. […] The saturated solutions were again removed from the shaker after they had reached equilibrium and centrifuged for 30 min at 5000 rpm. A previously established environmentally friendly HPLC method was used to assess the ITN content after the supernatants were isolated and diluted (as required). The identification of ITN was carried out via a Nucleodur (dimensions: 150 mm × 4.6 mm and particle size: 5 μm) reversed-phase C18 analytical column at 298.2 K. The environmentally friendly mobile used was a binary mixture of ethyl acetate and ethanol (50:50% v v^−1). The mobile phase was delivered with a flow speed of 1 mL min^−1. The ITN measurements were performed at a wavelength of 354 nm. The sample volume was 20 μL, which was injected using a Waters autosampler. The Analytical GREEnness (AGREE) score was determined to evaluate the eco-friendliness nature of the HPLC method. The AGREE score was predicted to be 0.76 for the present HPLC method, indicating the eco-friendly nature of the HPLC method. ITN mole fraction solubilities (xe) were calculated using their standard formulae described in our previous work.

CC1=C(/C=C/C(C)=C/C=C/C(C)=C\C(=O)O)C(C)(C)CCC1 [ITN, isotretinoin]
xe experimental solubility (DMSO mass fraction m = 0.0, T = 298.2 K): 3.10 (0.07) × 10^−7 mole fraction
xe experimental solubility (DMSO mass fraction m = 0.0, T = 303.2 K): 4.60 (0.15) × 10^−7 mole fraction
xe experimental solubility (DMSO mass fraction m = 0.0, T = 308.2 K): 7.50 (0.18) × 10^−7 mole fraction
xe experimental solubility (DMSO mass fraction m = 0.0, T = 313.2 K): 1.10 (0.02) × 10^−6 mole fraction
xe experimental solubility (DMSO mass fraction m = 0.0, T = 318.2 K): 1.50 (0.03) × 10^−6 mole fraction
xe experimental solubility (DMSO mass fraction m = 0.1, T = 298.2 K): 1.12 (0.02) × 10^−6 mole fraction
xe experimental solubility (DMSO mass fraction m = 0.1, T = 303.2 K): 1.59 (0.03) × 10^−6 mole fraction
xe experimental solubility (DMSO mass fraction m = 0.1, T = 308.2 K): 2.45 (0.05) × 10^−6 mole fraction
xe experimental solubility (DMSO mass fraction m = 0.1, T = 313.2 K): 3.47 (0.06) × 10^−6 mole fraction
xe experimental solubility (DMSO mass fraction m = 0.1, T = 318.2 K): 4.61 (0.11) × 10^−6 mole fraction
xe experimental solubility (DMSO mass fraction m = 0.2, T = 298.2 K): 3.83 (0.08) × 10^−6 mole fraction
xe experimental solubility (DMSO mass fraction m = 0.2, T = 303.2 K): 5.28 (0.17) × 10^−6 mole fraction
xe experimental solubility (DMSO mass fraction m = 0.2, T = 308.2 K): 7.87 (0.21) × 10^−6 mole fraction
xe experimental solubility (DMSO mass fraction m = 0.2, T = 313.2 K): 1.10 (0.01) × 10^−5 mole fraction
xe experimental solubility (DMSO mass fraction m = 0.2, T = 318.2 K): 1.42 (0.02) × 10^−5 mole fraction
xe experimental solubility (DMSO mass fraction m = 0.3, T = 298.2 K): 1.36 (0.01) × 10^−5 mole fraction
xe experimental solubility (DMSO mass fraction m = 0.3, T = 303.2 K): 1.82 (0.03) × 10^−5 mole fraction
xe experimental solubility (DMSO mass fraction m = 0.3, T = 308.2 K): 2.57 (0.04) × 10^−5 mole fraction
xe experimental solubility (DMSO mass fraction m = 0.3, T = 313.2 K): 3.43 (0.06) × 10^−5 mole fraction
xe experimental solubility (DMSO mass fraction m = 0.3, T = 318.2 K): 4.29 (0.07) × 10^−5 mole fraction
xe experimental solubility (DMSO mass fraction m = 0.4, T = 298.2 K): 4.68 (0.07) × 10^−5 mole fraction
xe experimental solubility (DMSO mass fraction m = 0.4, T = 303.2 K): 6.06 (0.08) × 10^−5 mole fraction
xe experimental solubility (DMSO mass fraction m = 0.4, T = 308.2 K): 8.23 (0.10) × 10^−5 mole fraction
xe experimental solubility (DMSO mass fraction m = 0.4, T = 313.2 K): 1.08 (0.01) × 10^−4 mole fraction
xe experimental solubility (DMSO mass fraction m = 0.4, T = 318.2 K): 1.32 (0.02) × 10^−4 mole fraction
xe experimental solubility (DMSO mass fraction m = 0.5, T = 298.2 K): 1.65 (0.04) × 10^−4 mole fraction
xe experimental solubility (DMSO mass fraction m = 0.5, T = 303.2 K): 2.05 (0.05) × 10^−4 mole fraction
xe experimental solubility (DMSO mass fraction m = 0.5, T = 308.2 K): 2.69 (0.06) × 10^−4 mole fraction
xe experimental solubility (DMSO mass fraction m = 0.5, T = 313.2 K): 3.31 (0.07) × 10^−4 mole fraction
xe experimental solubility (DMSO mass fraction m = 0.5, T = 318.2 K): 3.96 (0.08) × 10^−4 mole fraction
xe experimental solubility (DMSO mass fraction m = 0.6, T = 298.2 K): 5.70 (0.10) × 10^−4 mole fraction
xe experimental solubility (DMSO mass fraction m = 0.6, T = 303.2 K): 6.88 (0.12) × 10^−4 mole fraction
xe experimental solubility (DMSO mass fraction m = 0.6, T = 308.2 K): 8.57 (0.17) × 10^−4 mole fraction
xe experimental solubility (DMSO mass fraction m = 0.6, T = 313.2 K): 1.08 (0.01) × 10^−3 mole fraction
xe experimental solubility (DMSO mass fraction m = 0.6, T = 318.2 K): 1.22 (0.02) × 10^−3 mole fraction
xe experimental solubility (DMSO mass fraction m = 0.7, T = 298.2 K): 2.02 (0.03) × 10^−3 mole fraction
xe experimental solubility (DMSO mass fraction m = 0.7, T = 303.2 K): 2.33 (0.05) × 10^−3 mole fraction
xe experimental solubility (DMSO mass fraction m = 0.7, T = 308.2 K): 2.79 (0.06) × 10^−3 mole fraction
xe experimental solubility (DMSO mass fraction m = 0.7, T = 313.2 K): 3.24 (0.07) × 10^−3 mole fraction
xe experimental solubility (DMSO mass fraction m = 0.7, T = 318.2 K): 3.66 (0.08) × 10^−3 mole fraction
xe experimental solubility (DMSO mass fraction m = 0.8, T = 298.2 K): 6.97 (0.10) × 10^−3 mole fraction
xe experimental solubility (DMSO mass fraction m = 0.8, T = 303.2 K): 7.81 (0.12) × 10^−3 mole fraction
xe experimental solubility (DMSO mass fraction m = 0.8, T = 308.2 K): 8.96 (0.20) × 10^−3 mole fraction
xe experimental solubility (DMSO mass fraction m = 0.8, T = 313.2 K): 1.02 (0.01) × 10^−2 mole fraction
xe experimental solubility (DMSO mass fraction m = 0.8, T = 318.2 K): 1.15 (0.01) × 10^−2 mole fraction
